These results are taken from patent US20240059741A1, “COMPOSITION FOR PREVENTION OR TREATMENT OF SARS-COV-2 INFECTION” (priority 2020, published 2024).

One series has as its target T1, proteinaseK (Parengyodontium album, UniProt P06873).
T1 construct: purchased Bioshop
Kind of series: Peptide remaining degree after ProtK treatment (Coomassie staining). Format: in vitro ADME. As to conditions: 5 ug/ml proteinaseK, 37° C., 10, 30 and 60 minutes, FIG. 7.

The test system of series [1] is SARS-CoV-2 S1.
The subject of series [2] is SARS-CoV-2 S1. This is another data set of the same source.

T1 sequence (P06873 106-384, species assumed): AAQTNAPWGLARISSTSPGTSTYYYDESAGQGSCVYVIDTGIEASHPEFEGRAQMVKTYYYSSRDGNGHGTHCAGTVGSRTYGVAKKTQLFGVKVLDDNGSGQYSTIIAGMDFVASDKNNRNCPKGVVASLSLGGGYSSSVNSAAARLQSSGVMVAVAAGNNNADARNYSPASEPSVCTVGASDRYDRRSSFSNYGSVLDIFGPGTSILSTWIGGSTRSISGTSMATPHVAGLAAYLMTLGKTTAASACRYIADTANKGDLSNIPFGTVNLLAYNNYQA
Procedure for proteinaseK: 200 μL of 50 μM stock solution was prepared with a base buffer (10 mM Tris-base, 10 mM NaCl, pH 7.4) and supplemented with 5 μM CaCl2. For untreated TO samples, 30 μL were obtained from each sample. Thereafter, 5 ug/ml of proteinaseK (Bioshop) was added to a final concentration of the remaining stock. […] Protease inactivated samples were frozen at −20° C. before further use. The frozen sample was supplemented with 8 μL of sample loading buffer (4×NuPAGE; ThermoFisher Scientific), boiled for 10 minutes (50° C.), and centrifuged at 13,500 RPM for 10 minutes before mounting a gel [12% NuPAGE Bis-Tris (ThermoFisher Scientific)] with 1×Mes running buffer. The gel was treated at 200 V for 35 minutes and stained with Coomassie Brilliant Blue dye G-250 (Thermo Fisher Scientific). ImageJ software having a background subtractive function was used as a density meter. All samples were normalized to untreated samples (TO).

`CC[C@H](C)[C@H](N)C(=O)N[C@@H](CCC(=O)O)C(=O)N[C@@H](CCC(=O)O)C(=O)N[C@@H](CCC(N)=O)C(=O)N[C@@H](C)C(=O)N[C@@H](CCCCN)C(=O)N[C@H](C(=O)N[C@@H](Cc1ccccc1)C(=O)N[C@@H](CC(C)C)C(=O)N[C@@H](CC(=O)O)C(=O)N[C@@H](CCCCN)C(=O)N[C@@H](Cc1ccccc1)C(=O)N[C@@H](CC(N)=O)C(=O)N[C@@H](Cc1c[nH]cn1)C(=O)N[C@@H](CCC(=O)O)C(=O)N[C@@H](C)C(=O)N[C@@H](CCC(=O)O)C(=O)N[C@@H](CC(=O)O)C(=O)N[C@@H](CC(C)C)C(=O)N[C@@H](Cc1ccccc1)C(=O)N[C@@H](Cc1ccc(O)cc1)C(=O)N[C@@H](CCC(N)=O)C(=O)N[C@@H](CO)C(=O)N[C@@H](CO)C(=O)N[C@@H](CC(C)C)C(=O)N[C@@H](C)C(=O)N[C@@H](CO)C(=O)NCC(=O)N1CCC[C@H]1C(=O)NCC(=O)N[C@H]1CSSC[C@@H](C(=O)N[C@@H](CCCNC(=N)N)C(=O)N[C@H](C(=O)N[C@@H](CC(C)C)C(=O)O)[C@@H](C)CC)NC(=O)[C@H](CC(=O)O)NC(=O)CNC(=O)[C@H](CCCCN)NC(=O)CNC(=O)[C@H](CC(C)C)NC1=O)[C@@H](C)O` [CSNP1]: at proteinaseK, the “peptide remaining degree after proteinase K treatment” value is recorded as “barely remained”. The “ka” value in the series on SARS-CoV-2 S1 [1] came out at 603.4 M⁻¹ s⁻¹. Besides, the “kd” value in the series with SARS-CoV-2 S1 [2] turned out to be 0.0001878 s⁻¹.
